{"source": "patent US10851083B2", "about": "“Benzoimidazoles as prolyl hydroxylase inhibitors” (Janssen Pharmaceutica NV, priority 2008, dated 2020)", "key": {"human PHD2181-417": {"target": "human PHD2181-417 (Homo sapiens (Human), UniProt Q9GZT9)", "sequence (Q9GZT9 181-417)": "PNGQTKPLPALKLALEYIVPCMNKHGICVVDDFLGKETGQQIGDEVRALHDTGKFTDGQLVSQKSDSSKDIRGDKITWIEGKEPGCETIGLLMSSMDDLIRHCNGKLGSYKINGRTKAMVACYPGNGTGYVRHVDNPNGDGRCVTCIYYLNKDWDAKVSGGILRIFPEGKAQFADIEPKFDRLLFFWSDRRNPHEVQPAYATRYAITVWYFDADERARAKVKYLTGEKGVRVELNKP", "test": "PHD2 enzyme activity assay ([14C]-succinic acid production);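 also: reaction ran 10 min with compound in Tris pH 7.5 buffer with catalase, DTT and ascorbate, labelled succinate freed of leftover 2-oxoglutarate by DNP precipitation, then beta counted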", "type": "biochemical", "details": "PHD2181-417 polypeptide, HIF-1α peptide 10 μM, [5-14C]-2-oxoglutaric acid; 30 min pre-incubation; tested 10 μM to 3 nM"}, "Hep-3B cells": {"tested_on": "Hep-3B cells", "test": "Cellular assay: EPO secretion in Hep-3B cells", "type": "cell-based, human", "parameters": "EPO secretion, % of control compound: dose or concentration left out as unconfirmed", "details": "Homo sapiens, Hep3B, 24 h, EPO secretion as percentage of control compound 7-[(4-Chloro-phenyl)-(5-methyl-isoxazol-3-ylamino)-methyl]-quinolin-8-ol, read-out: Cellular % EPO Stimulation"}}}
{"smiles": "COc1ccc(Sc2cc3nc(-n4cc(C(=O)O)cn4)[nH]c3cc2C(F)(F)F)cc1", "note": "[Example 160, 1-[5-(4-Methoxy-phenylsulfanyl)-6-trifluoromethyl-1H-benzoimidazol-2-yl]-1H-pyrazole-4-carboxylic Acid]", "values": [{"measurement": "Enzyme pIC50", "setting": "human PHD2181-417", "value": 7.5}, {"measurement": "EPO secretion, % of control compound", "setting": "Hep-3B cells", "value": 36.1, "unit": "%"}]}
{"smiles": "O=C(O)c1cnn(-c2nc3cc(S(=O)(=O)c4ccccc4)c(C(F)(F)F)cc3[nH]2)c1", "note": "[Example 161, 1-(5-Benzenesulfonyl-6-trifluoromethyl-1H-benzoimidazol-2-yl)-1H-pyrazole-4-carboxylic Acid]", "values": [{"measurement": "Enzyme pIC50", "setting": "human PHD2181-417", "value": 7.6}, {"measurement": "EPO secretion, % of control compound", "setting": "Hep-3B cells", "value": 98.2, "unit": "%"}]}
{"smiles": "COc1ccc(S(=O)(=O)c2cc3nc(-n4cc(C(=O)O)cn4)[nH]c3cc2C(F)(F)F)cc1", "note": "[Example 162, 1-[5-(4-Methoxy-benzenesulfonyl)-6-trifluoromethyl-1H-benzoimidazol-2-yl]-1H-pyrazole-4-carboxylic Acid]", "values": [{"measurement": "Enzyme pIC50", "setting": "human PHD2181-417", "value": 7.6}, {"measurement": "EPO secretion, % of control compound", "setting": "Hep-3B cells", "value": 45.8, "unit": "%"}]}
{"smiles": "O=C(O)c1cnn(-c2nc3cc(SCc4ccc(Cl)cc4)c(Cl)cc3[nH]2)c1", "note": "[Example 163, 1-[6-Chloro-5-(4-chloro-benzylsulfanyl)-1H-benzoimidazol-2-yl]-1H-pyrazole-4-carboxylic Acid]", "values": [{"measurement": "Enzyme pIC50", "setting": "human PHD2181-417", "value": 6.5}, {"measurement": "EPO secretion, % of control compound", "setting": "Hep-3B cells", "value": 37, "unit": "%"}]}
{"smiles": "O=C(O)c1cnn(-c2nc3cc(SCc4cccc(Cl)c4)c(Cl)cc3[nH]2)c1", "note": "[Example 164, 1-[6-Chloro-5-(3-chloro-benzylsulfanyl)-1H-benzoimidazol-2-yl]-1H-pyrazole-4-carboxylic Acid]", "values": [{"measurement": "Enzyme pIC50", "setting": "human PHD2181-417", "value": 6.6}, {"measurement": "EPO secretion, % of control compound", "setting": "Hep-3B cells", "value": 27.4, "unit": "%"}]}
{"smiles": "O=C(O)c1cnn(-c2nc3cc(SCC4CCCCC4)c(Cl)cc3[nH]2)c1", "note": "[Example 165, 1-(6-Chloro-5-cyclohexylmethylsulfanyl-1H-benzoimidazol-2-yl)-1H-pyrazole-4-carboxylic Acid]", "values": [{"measurement": "Enzyme pIC50", "setting": "human PHD2181-417", "value": 6.9}, {"measurement": "EPO secretion, % of control compound", "setting": "Hep-3B cells", "value": 27.3, "unit": "%"}]}
{"smiles": "O=C(O)c1cnn(-c2nc3cc(SCCN4CCOCC4)c(Cl)cc3[nH]2)c1", "note": "[Example 166, 1-[6-Chloro-5-(2-morpholin-4-yl-ethylsulfanyl)-1H-benzoimidazol-2-yl]-1H-pyrazole-4-carboxylic Acid]", "values": [{"measurement": "Enzyme pIC50", "setting": "human PHD2181-417", "value": 7}, {"measurement": "EPO secretion, % of control compound", "setting": "Hep-3B cells", "value": 15.1, "unit": "%"}]}
{"smiles": "O=C(O)c1cnn(-c2nc3cc(SCc4ccc(Cl)c(Cl)c4)c(Cl)cc3[nH]2)c1", "note": "[Example 167, 1-[6-Chloro-5-(3,4-dichloro-benzylsulfanyl)-1H-benzoimidazol-2-yl]-1H-pyrazole-4-carboxylic Acid]", "values": [{"measurement": "Enzyme pIC50", "setting": "human PHD2181-417", "value": 6.4}, {"measurement": "EPO secretion, % of control compound", "setting": "Hep-3B cells", "value": 25.8, "unit": "%"}]}
{"smiles": "O=C(O)c1cnn(-c2nc3cc(SCc4c(Cl)cccc4Cl)c(Cl)cc3[nH]2)c1", "note": "[Example 168, 1-[6-Chloro-5-(2,6-dichloro-benzylsulfanyl)-1H-benzoimidazol-2-yl]-1H-pyrazole-4-carboxylic Acid]", "values": [{"measurement": "Enzyme pIC50", "setting": "human PHD2181-417", "value": 7.3}, {"measurement": "EPO secretion, % of control compound", "setting": "Hep-3B cells", "value": 50.1, "unit": "%"}]}
{"smiles": "O=C(O)c1cnn(-c2nc3cc(S(=O)(=O)Cc4ccc(Cl)cc4)c(Cl)cc3[nH]2)c1", "note": "[Example 173, 1-[6-Chloro-5-(4-chloro-phenylmethanesulfonyl)-1H-benzoimidazol-2-yl]-1H-pyrazole-4-carboxylic Acid]", "values": [{"measurement": "Enzyme pIC50", "setting": "human PHD2181-417", "value": 7.8}, {"measurement": "EPO secretion, % of control compound", "setting": "Hep-3B cells", "value": 60.4, "unit": "%"}]}
{"smiles": "O=C(O)c1cnn(-c2nc3cc(S(=O)(=O)Cc4cccc(Cl)c4)c(Cl)cc3[nH]2)c1", "note": "[Example 174, 1-[6-Chloro-5-(3-chloro-phenylmethanesulfonyl)-1H-benzoimidazol-2-yl]-1H-pyrazole-4-carboxylic Acid]", "values": [{"measurement": "Enzyme pIC50", "setting": "human PHD2181-417", "value": 7.6}, {"measurement": "EPO secretion, % of control compound", "setting": "Hep-3B cells", "value": 40.9, "unit": "%"}]}
{"smiles": "O=C(O)c1cnn(-c2nc3cc(S(=O)(=O)CC4CCCCC4)c(Cl)cc3[nH]2)c1", "note": "[Example 175, 1-(6-Chloro-5-cyclohexylmethanesulfonyl-1H-benzoimidazol-2-yl)-1H-pyrazole-4-carboxylic Acid]", "values": [{"measurement": "Enzyme pIC50", "setting": "human PHD2181-417", "value": 7.7}, {"measurement": "EPO secretion, % of control compound", "setting": "Hep-3B cells", "value": 48.7, "unit": "%"}]}
{"smiles": "O=C(O)c1cnn(-c2nc3cc(S(=O)(=O)Cc4ccc(Cl)c(Cl)c4)c(Cl)cc3[nH]2)c1", "note": "[Example 176, 1-[6-Chloro-5-(3,4-dichloro-phenylmethanesulfonyl)-1H-benzoimidazol-2-yl]-1H-pyrazole-4-carboxylic Acid]", "values": [{"measurement": "Enzyme pIC50", "setting": "human PHD2181-417", "value": 7.6}, {"measurement": "EPO secretion, % of control compound", "setting": "Hep-3B cells", "value": 44.2, "unit": "%"}]}
{"smiles": "O=C(O)c1cnn(-c2nc3cc(S(=O)(=O)Cc4c(Cl)cccc4Cl)c(Cl)cc3[nH]2)c1", "note": "[Example 177, 1-[6-Chloro-5-(2,6-dichloro-phenylmethanesulfonyl)-1H-benzoimidazol-2-yl]-1H-pyrazole-4-carboxylic Acid]", "values": [{"measurement": "Enzyme pIC50", "setting": "human PHD2181-417", "value": 7.5}, {"measurement": "EPO secretion, % of control compound", "setting": "Hep-3B cells", "value": 66.6, "unit": "%"}]}
{"smiles": "O=C(O)c1cnn(-c2nc3nc4ccccc4nc3[nH]2)c1", "note": "[Example 182, 1-(1H-Imidazo[4,5-b]quinoxalin-2-yl)-1H-pyrazole-4-carboxylic Acid]", "values": [{"measurement": "Enzyme pIC50", "setting": "human PHD2181-417", "value": 5.5}, {"measurement": "EPO secretion, % of control compound", "setting": "Hep-3B cells", "value": 13.4, "unit": "%"}]}
{"smiles": "O=C(O)c1cnn(-c2nc3nc4cc(Cl)c(Cl)cc4nc3[nH]2)c1", "note": "[Example 183, 1-(6,7-Dichloro-1H-imidazo[4,5-b]quinoxalin-2-yl)-1H-pyrazole-4-carboxylic Acid]", "values": [{"measurement": "Enzyme pIC50", "setting": "human PHD2181-417", "value": 6.4}, {"measurement": "EPO secretion, % of control compound", "setting": "Hep-3B cells", "value": 3.3, "unit": "%"}]}
{"smiles": "O=C(O)c1cnn(-c2nc3nccnc3[nH]2)c1", "note": "[Example 184, 1-(1H-Imidazo[4,5-b]pyrazin-2-yl)-1H-pyrazole-4-carboxylic Acid]", "values": [{"measurement": "Enzyme pIC50", "setting": "human PHD2181-417", "value": 5.9}, {"measurement": "EPO secretion, % of control compound", "setting": "Hep-3B cells", "value": 8.3, "unit": "%"}]}
{"smiles": "O=C(O)c1cnn(-c2nc3c(Cl)ncnc3[nH]2)c1", "note": "[Example 185, 1-(6-Chloro-9H-purin-8-yl)-1H-pyrazole-4-carboxylic Acid]", "values": [{"measurement": "Enzyme pIC50", "setting": "human PHD2181-417", "value": 5.3}, {"measurement": "EPO secretion, % of control compound", "setting": "Hep-3B cells", "value": 11.7, "unit": "%"}]}
{"smiles": "O=C(O)c1cnn(-c2nc3cc(S(=O)(=O)Nc4ccccc4)c(Cl)cc3[nH]2)c1", "note": "[Example 186, 1-(6-Chloro-5-phenylsulfamoyl-1H-benzoimidazol-2-yl)-1H-pyrazole-4-carboxylic Acid]", "values": [{"measurement": "Enzyme pIC50", "setting": "human PHD2181-417", "value": 7.4}, {"measurement": "EPO secretion, % of control compound", "setting": "Hep-3B cells", "value": 39.1, "unit": "%"}]}
